This note sets out measurements from US20240264159A1 (priority 2021, published 2024).

This test deals with Spike SARS-CoV-2 foreign nanoparticles / coated host ACE2 nanoparticles (Severe acute respiratory syndrome coronavirus 2, UniProt P0DTC2, D614G). The test is classed as biochemical.

Consider `C[C@@H]1O[C@@H](O[C@H]2C[C@@H](O)[C@]3(CO)[C@H]4[C@H](O)C[C@]5(C)[C@@H](C6=CC(=O)OC6)CC[C@]5(O)[C@@H]4CC[C@]3(O)C2)[C@H](O)[C@H](O)[C@H]1O` [ouabain], for which the “neutralization/blocking of fusion, coated host ACE2 nanoparticles” value is “Neutralization was further blocked”.
